Results as given in patent publication US20210269434A1, “TRICYCLIC COMPOUNDS AS INHIBITORS OF KRAS” (Incyte Corporation, priority 2020, published 2021).

Columns and labels:
[1] = target: KRAS G12D (Homo sapiens, UniProt P01116, G12D); test: GDP-GTP exchange assay (KRAS_G12D exchange); format: biochemical; settings: bodipy loaded KRAS G12D 2.5 nM; 4 hours incubation after GppNHp-SOS1; read-out: G12D_exchange
Protocol: Example A. GDP-GTP Exchange Assay
The inhibitor potency of the exemplified compounds was determined in a fluorescence based guanine nucleotide exchange assay, which measures the exchange of bodipy-GDP (fluorescently labeled GDP) for GppNHp (Non-hydrolyzable GTP analog) to generate the active state of KRAS in the presence of SOS1 (guanine nucleotide exchange factor). Inhibitors were serially diluted in DMSO and a volume of 0.1 μL was transferred to the wells of a black low volume 384-well plate. 5 μL/well volume of bodipy-loaded KRAS G12C diluted to 5 nM in assay buffer (25 mM Hepes pH 7.5, 50 mM NaCl, 10 mM MgCl2 and 0.01% Brij-35) was added to the plate and pre-incubated with inhibitor for 2 hours at ambient temperature. Appropriate controls (enzyme with no inhibitor or with a G12C inhibitor (AMG-510)) were included on the plate. The exchange was initiated by the addition of a 5 μL/well volume containing 1 mM GppNHp and 300 nM SOS1 in assay buffer. The 10 μL/well reaction concentration of the bodipy-loaded KRAS G12C, GppNHp, and SOS1 were 2.5 nM, 500 uM, and 150 nM, respectively. The reaction plates were incubated at ambient temperature for 2 hours, a time estimated for complete GDP-GTP exchange in the absence of inhibitor. For the KRAS G12D and G12V mutants, similar guanine nucleotide exchange assays were used with 2.5 nM as final concentration for the bodipy loaded KRAS proteins and with 4 hours and 3 hours incubation after adding GppNHp-SOS1 mixture for G12D and G12V respectively. A cyclic peptide described to selectively bind G12D mutant (Sakamoto et al., BBRC 484.3 (2017), 605-611) or internal compounds with confirmed binding were used as positive controls in the assay plates. Fluorescence intensities were measured on a PheraStar plate reader instrument (BMG Labtech) with excitation at 485 nm and emission at 520 nm.
Either GraphPad prism or XLfit was used to analyze the data. The IC50 values were derived by fitting the data to a four parameter logistic equation producing a sigmoidal dose-response curve with a variable Hill coefficient. Prism equation: Y=Bottom+(Top−Bottom)/(1+10^((Log lC50−X)*Hill slope)); XLfit equation: Y=(A+((B−A)/(1+((X/C)^D)))) where X is the logarithm of inhibitor concentration and Y is the response.

[2] = target: KRAS G12C (Homo sapiens, UniProt P01116, G12C); test: GDP-GTP exchange assay (KRAS_G12C exchange); format: biochemical; settings: bodipy-GDP loaded KRAS G12C 2.5 nM, SOS1 150 nM, GppNHp; 2 hours pre-incubation, 2 hours reaction; read-out: G12C_exchange
In short: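 Fluorescence exchange of bodipy-GDP for GppNHp, SOS1-driven, read at 485/520 nm; IC50 from four-parameter variable-slope fit. Both mutants used 2.5 nM final labelled protein and a 2 h compound pre-incubation. G12C reaction had 500 uM GppNHp and 150 nM SOS1 for 2 h; G12D ran 4 h.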

[3] = system: MIA PaCa-2 (KRAS G12C) cells; test: Cellular pERK HTRF assay (KRAS_G12C pERK); format: cell-based, human; settings: Homo sapiens, MIA PaCa-2, 4 hours incubation, read-out: G12C_pERK
In short: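 Phospho-ERK1/2 HTRF readout (665 and 620 nm) in lysed MIA PaCa-2 cells, antibodies incubated overnight at room temperature. Cells seeded the day before and treated with G12C compounds for 4 h at 37 °C; IC50 fitted to percent inhibition against log inhibitor concentration.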

KRAS G12C, sequence (P01116 1-188 isoform P01116-2 G12C): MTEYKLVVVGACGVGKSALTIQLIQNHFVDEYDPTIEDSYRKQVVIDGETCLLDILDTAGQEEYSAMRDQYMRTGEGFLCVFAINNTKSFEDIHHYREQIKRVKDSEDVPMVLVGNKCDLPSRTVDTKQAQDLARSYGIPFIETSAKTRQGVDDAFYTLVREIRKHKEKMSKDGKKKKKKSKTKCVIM
KRAS G12D, sequence (P01116 1-188 isoform P01116-2 G12D): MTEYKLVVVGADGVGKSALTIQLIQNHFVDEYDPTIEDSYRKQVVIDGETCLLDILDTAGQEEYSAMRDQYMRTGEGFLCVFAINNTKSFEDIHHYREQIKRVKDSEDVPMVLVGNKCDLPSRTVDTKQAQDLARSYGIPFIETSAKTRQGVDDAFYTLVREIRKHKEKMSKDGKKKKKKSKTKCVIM

| SMILES | IC50 [1] [µM] | IC50 [2] [µM] | IC50 [3] [µM] |
| --- | --- | --- | --- |
| CN(C)Cc1nc2c(N3CC(N(C)C)C3)nc3c(F)c(-c4cc(O)cc5ccccc45)c(Cl)cc3c2n1[C@H]1[C@H]2CN[C@@H]1C2 (racemic) [Example 49, 4-(1-((endo)-2-azabicyclo[2.1.1]hexan-5-yl)-8-chloro-4-(3-(dimethylamino)-azetidin-1-yl)-2-((dimethylamino)methyl)-6-fluoro-1H-imidazo[4,5-c]quinolin-7-yl)naphthalen-2-ol] | 5 to 10 |  |  |
| CC#CC(=O)N1CC[C@H](n2cnc3c(N4CC(N(C)C)C4)nc4c(F)c(-c5cccc(C)c5C(F)(F)F)c(Cl)cc4c32)C[C@H]1CC#N [Example 263, 2-((2S,4S)-1-(but-2-ynoyl)-4-(8-chloro-4-(3-(dimethylamino)azetidin-1-yl)-6-fluoro-7-(3-methyl-2-(trifluoromethyl)phenyl)-1H-imidazo[4,5-c]quinolin-1-yl)piperidin-2-yl)acetonitrile] |  | ≤ 0.1 | ≤ 0.1 |
| C=CC(=O)N1CC[C@H](n2cnc3c(N4CC(N(C)C)C4)nc4c(F)c(-c5cccc(C)c5C(F)(F)F)c(Cl)cc4c32)C[C@H]1CC#N [Example 264, 2-((2S,4S)-1-acryloyl-4-(8-chloro-4-(3-(dimethylamino)azetidin-1-yl)-6-fluoro-7-(3-methyl-2-(trifluoromethyl)phenyl)-1H-imidazo[4,5-c]quinolin-1-yl)piperidin-2-yl)acetonitrile] |  | ≤ 0.1 | ≤ 0.1 |
| C=CC(=O)N1CC[C@H](n2cnc3c(N4CC(N(C)C)C4)nc4c(F)c(-c5cccc6cccc(Cl)c56)c(Cl)cc4c32)C[C@H]1CC#N [Example 265, 2-((2S,4S)-1-acryloyl-4-(8-chloro-7-(8-chloronaphthalen-1-yl)-4-(3-(dimethylamino)azetidin-1-yl)-6-fluoro-1H-imidazo[4,5-c]quinolin-1-yl)piperidin-2-yl)acetonitrile] |  | ≤ 0.1 | ≤ 0.1 |
| C=CC(=O)N1CC[C@H](n2cnc3c(N4CC(N(C)C)C4)nc4c(F)c(-c5c(C)c(F)cc6[nH]ncc56)c(Cl)cc4c32)C[C@H]1CC#N [Example 266a, 2-((2S,4S)-1-acryloyl-4-(8-chloro-4-(3-(dimethylamino)azetidin-1-yl)-6-fluoro-7-(6-fluoro-5-methyl-1H-indazol-4-yl)-1H-imidazo[4,5-c]quinolin-1-yl)piperidin-2-yl)acetonitrile] |  | ≤ 0.1 | ≤ 0.1 |
| C=CC(=O)N1CC[C@H](n2cnc3c(N4CC(N(C)C)C4)nc4c(F)c(-c5cnc(C)c6ccccc56)c(Cl)cc4c32)C[C@H]1CC#N [Example 268a, 2-((2S,4S)-1-acryloyl-4-(8-chloro-4-(3-(dimethylamino)azetidin-1-yl)-6-fluoro-7-(1-methylisoquinolin-4-yl)-1H-imidazo[4,5-c]quinolin-1-yl)piperidin-2-yl)acetonitrile] |  | ≤ 0.1 | ≤ 0.1 |
| C=CC(=O)N1CC[C@H](n2cnc3c(N4CC(N(C)C)C4)nc4c(F)c(-c5c(C)ncc6ccccc56)c(Cl)cc4c32)C[C@H]1CC#N [Example 269a, 2-((2S,4S)-1-acryloyl-4-(8-chloro-4-(3-(dimethylamino)azetidin-1-yl)-6-fluoro-7-(3-methylisoquinolin-4-yl)-1H-imidazo[4,5-c]quinolin-1-yl)piperidin-2-yl)acetonitrile] |  | ≤ 0.1 | ≤ 0.1 |
| C=CC(=O)N1CC[C@H](n2nnc3c(N4CC(N(C)C)C4)nc4c(Cl)c(-c5cccc(Cl)c5C)c(Cl)cc4c32)C[C@H]1CC#N [Example 273, 2-((2S,4S)-1-acryloyl-4-(6,8-dichloro-7-(3-chloro-2-methylphenyl)-4-(3-(dimethylamino)azetidin-1-yl)-1H-[1,2,3]triazolo[4,5-c]quinolin-1-yl)piperidin-2-yl)acetonitrile] |  | ≤ 0.1 | ≤ 0.1 |
| CC#CC(=O)N1CC[C@H](n2nnc3c(N4CC(N(C)C)C4)nc4c(Cl)c(-c5ccc(F)c6cccnc56)c(Cl)cc4c32)C[C@H]1CC#N [Example 274a, 2-((2S,4S)-1-(but-2-ynoyl)-4-(6,8-dichloro-4-(3-(dimethylamino)azetidin-1-yl)-7-(5-fluoroquinolin-8-yl)-1H-[1,2,3]triazolo[4,5-c]quinolin-1-yl)piperidin-2-yl)acetonitrile] |  | ≤ 0.1 | ≤ 0.1 |
| CC#CC(=O)N1CC[C@H](n2nnc3c(OC[C@@H]4CCCN4C)nc4c(Cl)c(-c5cccc(Cl)c5Cl)c(Cl)cc4c32)C[C@H]1CC#N [Example 278, 2-((2S,4S)-1-(but-2-ynoyl)-4-(6,8-dichloro-7-(2,3-dichlorophenyl)-4-(((S)-1-methylpyrrolidin-2-yl)methoxy)-1H-[1,2,3]triazolo[4,5-c]quinolin-1-yl)piperidin-2-yl)acetonitrile] |  | ≤ 0.1 | ≤ 0.1 |
| C=CC(=O)N1CC[C@H](n2nnc3c(N4CC(N(C)C)C4)nc4c(Cl)c(-c5cccc(Cl)c5Cl)c(Cl)cc4c32)C[C@H]1CC#N [Example 281, 2-((2S,4S)-1-acryloyl-4-(6,8-dichloro-7-(2,3-dichlorophenyl)-4-(3-(dimethylamino)azetidin-1-yl)-1H-[1,2,3]triazolo[4,5-c]quinolin-1-yl)piperidin-2-yl)acetonitrile] |  | ≤ 0.1 | ≤ 0.1 |
| C=CC(=O)N1CC[C@H](n2nnc3c(N4CC(N(C)C)C4)nc4c(Cl)c(-c5cccc(C)c5Cl)c(Cl)cc4c32)C[C@H]1CC#N [Example 282, 2-((2S,4S)-1-acryloyl-4-(6,8-dichloro-7-(2-chloro-3-methylphenyl)-4-(3-(dimethylamino)azetidin-1-yl)-1H-[1,2,3]triazolo[4,5-c]quinolin-1-yl)piperidin-2-yl)acetonitrile] |  | ≤ 0.1 | ≤ 0.1 |
| C=CC(=O)N1CC[C@H](n2nnc3c(OC[C@@H]4CCCN4C)nc4c(Cl)c(-c5cccc(Cl)c5Cl)c(Cl)cc4c32)C[C@H]1CC#N [Example 285, 2-((2S,4S)-1-acryloyl-4-(6,8-dichloro-7-(2,3-dichlorophenyl)-4-(((S)-1-methylpyrrolidin-2-yl)methoxy)-1H-[1,2,3]triazolo[4,5-c]quinolin-1-yl)piperidin-2-yl)acetonitrile] |  | ≤ 0.1 | ≤ 0.1 |
| C=CC(=O)N1CC[C@H](n2nnc3c(OC[C@@H]4CCCN4C)nc4c(Cl)c(-c5cccc(C)c5Cl)c(Cl)cc4c32)C[C@H]1CC#N [Example 286, 2-((2S,4S)-1-acryloyl-4-(6,8-dichloro-7-(2-chloro-3-methylphenyl)-4-(((S)-1-methylpyrrolidin-2-yl)methoxy)-1H-[1,2,3]triazolo[4,5-c]quinolin-1-yl)piperidin-2-yl)acetonitrile] |  | ≤ 0.1 | ≤ 0.1 |
| C=CC(=O)N1CC[C@H](n2nnc3c(OC[C@@H]4CCCN4C)nc4c(Cl)c(-c5cccc(Cl)c5C)c(Cl)cc4c32)C[C@H]1CC#N [Example 287, 2-((2S,4S)-1-acryloyl-4-(6,8-dichloro-7-(3-chloro-2-methylphenyl)-4-(((S)-1-methylpyrrolidin-2-yl)methoxy)-1H-[1,2,3]triazolo[4,5-c]quinolin-1-yl)piperidin-2-yl)acetonitrile] |  | ≤ 0.1 | ≤ 0.1 |
| C=CC(=O)N1CC[C@H](n2nnc3c(N4CC(N(C)C)C4)nc4c(Cl)c(-c5cccc(Cl)c5OC)c(Cl)cc4c32)C[C@H]1CC#N [Example 290, 2-((2S,4S)-1-acryloyl-4-(6,8-dichloro-7-(3-chloro-2-methoxyphenyl)-4-(3-(dimethylamino)azetidin-1-yl)-1H-[1,2,3]triazolo[4,5-c]quinolin-1-yl)piperidin-2-yl)acetonitrile] |  | ≤ 0.1 | ≤ 0.1 |
